Test results as given in BindingDB's records for doi:10.1016/j.bmcl.2016.03.078 (Merck Research Laboratories, 2016).

Target: E3 ubiquitin-protein ligase Mdm2 (Homo sapiens, UniProt Q00987)
Assay: Displacement of Ac-Phe-Arg-Dpr(fluorophore)-Ac6c-(6-Br)Trp-Glu-Glu-Leu-NH2 from human N-terminal His6-tagged MDM2 (17 to 125 residues) expressed in Escherichia coli by fluorescence polarization assay

E3 ubiquitin-protein ligase Mdm2, sequence (Q00987 whole entry, the tested form may be a part): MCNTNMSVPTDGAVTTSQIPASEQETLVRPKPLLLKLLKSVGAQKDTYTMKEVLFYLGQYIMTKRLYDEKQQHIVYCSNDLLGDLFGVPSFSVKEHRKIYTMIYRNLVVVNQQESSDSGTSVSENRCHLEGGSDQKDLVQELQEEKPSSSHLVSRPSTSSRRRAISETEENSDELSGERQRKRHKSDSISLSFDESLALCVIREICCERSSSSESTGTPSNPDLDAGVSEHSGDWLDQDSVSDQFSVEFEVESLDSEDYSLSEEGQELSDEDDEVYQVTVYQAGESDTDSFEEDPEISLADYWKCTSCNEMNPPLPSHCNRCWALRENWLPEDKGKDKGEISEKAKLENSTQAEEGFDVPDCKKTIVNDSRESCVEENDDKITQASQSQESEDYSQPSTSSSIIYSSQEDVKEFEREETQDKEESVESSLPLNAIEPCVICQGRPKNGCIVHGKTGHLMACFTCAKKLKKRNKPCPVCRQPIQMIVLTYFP

Work on `O=C(c1cnccc1C(F)(F)F)N1CCCC(Oc2ccc(C(F)(F)F)cc2)(C(=O)N2CCN(c3ccccn3)CC2)C1` (stereo unspecified) yielded an IC50 of 2300 nM.
